Source: article PMC9524145, “Open channel block of Kv1.5 channels by HMQ1611” (Frontiers in Pharmacology, 2022)

How the values were obtained:
Type in all cases: cell-based
[1] = biological target: T1, wild-type (WT) hKv1.5 (KCNA5) channel (Homo sapiens, UniProt P22460); assay: whole-cell patch-clamp of wild-type hKv1.5 current in transfected CHO cells
T1 construct: Full-length cDNA encoding wild-type (WT) hKv1.5 (KCNA5) subcloned into the pcDNA3.1 expression vector; expressed in transfected cells; host or cells: CHO cells, transient transfection (pcDNA3.1), GFP cDNA co-transfected as a separate marker
T1 sequence (P22460 whole entry): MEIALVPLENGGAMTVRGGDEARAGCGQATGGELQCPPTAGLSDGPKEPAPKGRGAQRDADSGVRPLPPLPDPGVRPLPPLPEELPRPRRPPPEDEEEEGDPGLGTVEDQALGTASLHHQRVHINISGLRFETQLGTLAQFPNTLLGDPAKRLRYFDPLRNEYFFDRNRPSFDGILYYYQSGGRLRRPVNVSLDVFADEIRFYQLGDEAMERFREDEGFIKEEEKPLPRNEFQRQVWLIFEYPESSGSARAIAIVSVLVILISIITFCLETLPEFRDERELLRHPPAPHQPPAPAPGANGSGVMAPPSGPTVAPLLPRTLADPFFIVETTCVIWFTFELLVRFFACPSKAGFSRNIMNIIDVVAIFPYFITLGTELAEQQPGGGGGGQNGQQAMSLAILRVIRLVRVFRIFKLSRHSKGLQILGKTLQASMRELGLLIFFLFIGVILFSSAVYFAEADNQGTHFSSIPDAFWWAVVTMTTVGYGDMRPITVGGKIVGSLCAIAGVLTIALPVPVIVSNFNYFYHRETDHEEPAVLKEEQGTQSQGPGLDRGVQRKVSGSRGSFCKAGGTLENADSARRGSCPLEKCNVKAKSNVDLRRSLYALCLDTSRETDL
Experimental: Chinese hamster ovary (CHO) cells donated by Dr. Takeru Makiyama (Kyoto University Graduate School of Medicine, Japan) were cultured in Dulbecco’s modified Eagle’s medium/Ham’s F-12 (DMEM/F-12) medium supplemented with 10% fetal bovine serum and antibiotics (100 IU/ml penicillin and 100 μg/ml streptomycin) in a humidified atmosphere with 5% CO2 and 95% air at 37°C. Cells were passaged every 3–4 days with trypsin–EDTA, and a portion of the cells was seeded onto glass cover slips (5 × 3 mm^2) for subsequent transfection.
(§1) Full-length cDNA encoding wild-type (WT) hKv1.5 (KCNA5) subcloned into the pcDNA3.1 expression vector was kindly provided by Dr. David Fedida (University of British Columbia, Canada). All hKv1.5 mutants (T462C, H463C, T479A, T480A, R487V, A501V, I502A, V505A, I508A, A509G, L510A, V512A, and V516A cDNAs) were constructed using a QuickChange II XL site-directed mutagenesis kit according to the manufacturer’s instructions (Stratagene, La Jolla, CA, USA) and subcloned into the pcDNA3.1. All mutants were fully sequenced (ABI3100x; Applied Biosystems, Foster City, CA, USA) to ensure fidelity.
(§2) WT or mutant hKv1.5 cDNA was transiently transfected into CHO cells together with green fluorescent protein (GFP) cDNA (0.5 μg WT or mutant hKv1.5 + 0.5 μg GFP) using Lipofectamine (Invitrogen Life Technologies, Carlsbad, CA, USA). Patch-clamp experiments were conducted on GFP-positive cells 48 h after transfection.
(§3) Kv1.5 currents were recorded using an EPC-8 patch-clamp amplifier (HEKA, Lambrecht, Germany) at 25°C. The data were low-pass filtered at 1 kHz, acquired at 5 kHz through an LIH-1600 analogue-to-digital converter (HEKA), and stored on a hard disc drive using Pulse/PulseFit software (HEKA). For experiments to measure the activation time course of hKv1.5 currents, the data were low-pass filtered at 10 kHz and sampled at 50 kHz. […] Cells attached to glass cover slips were transferred to a recording chamber (0.5 ml in volume) mounted on the stage of an inverted microscope (ECLIPSE TE2000-U, Nikon, Tokyo, Japan) and perfused continuously with Tyrode solution at a flow rate of 1 ml/min.
hKv1.5 channel currents were elicited by applying 300 ms depolarizing steps from a holding potential of -80 mV to various levels of -50 mV to +50 mV in 10 mV steps with a return potential of -40 mV, and each stimulus interval was longer than 10 s. Voltage-dependent activation of hKv1.5 channels was assessed by fitting the normalized I–V relations of the tail currents to a Boltzmann equation: Itail=1/(1+exp((V1/2−Vm)/k)), (1) where I tail is the tail current amplitude normalized with reference to the maximum value measured at +50 mV, V 1/2 is the voltage at half-maximal activation, V m is the test potential, and k is the slope factor.
(§4) The concentration–response curve for inhibition of hKv1.5 current by HMQ1611 was drawn by a least-squares fit of the Hill equation: %Control=1/(1+(IC50/[D])^nH), (2) where % Control represents the current in presence of the drug normalized with reference to the control amplitude (expressed as a percentage), IC50 is the concentration of HMQ1611 causing a half-maximal inhibition, nH is the Hill coefficient, and [D] is the drug concentration.
The apparent rate constants for binding (k +1) and unbinding (k -1) were obtained by fitting the equation: τD=1/(k+1[D]+k−1), (3) where τD is the drug-induced time constant, which was calculated from single exponential fits to the traces of current decay during the depolarizing step to +30 mV.
The apparent dissociation constant K D is expressed as kD=k−1/k+1. (4)
Deactivation kinetics of hKv1.5 were determined by fitting a single exponential function to the tail current trace (obtained by depolarizing a cell to +30 mV for 300 ms, followed by a repolarizing pulse to -40 mV).
Normal Tyrode solution contained 140 mM NaCl, 5.4 mM KCl, 1.8 mM CaCl2, 0.5 mM MgCl2, 0.33 mM NaH2PO4, 5.5 mM glucose, and 5.0 mM HEPES (pH adjusted to 7.4 with NaOH). […]

[2] = biological target: T2, hKv1.5 T479A mutant channel (Homo sapiens, UniProt P22460, T479A); assay: whole-cell patch-clamp of T479A mutant hKv1.5 current in CHO cells; conditions: 5 μM HMQ1611, late current at +30 mV, n = 8, p < 0.01 vs. WT
T2 construct: Full-length cDNA encoding wild-type (WT) hKv1.5 (KCNA5) subcloned into the pcDNA3.1 expression vector; expressed in transfected cells; host or cells: CHO cells, transient transfection (pcDNA3.1), GFP cDNA co-transfected as a separate marker
T2 sequence (P22460 whole entry T479A): as the sequence (P22460 whole entry) above, with T479A counted along it
From the text: as §1
(§5) WT or mutant hKv1.5 cDNA was transiently transfected into CHO cells together with green fluorescent protein (GFP) cDNA (0.5 μg WT or mutant hKv1.5 + 0.5 μg GFP) using Lipofectamine (Invitrogen Life Technologies, Carlsbad, CA, USA). […]
(§6) Kv1.5 currents were recorded using an EPC-8 patch-clamp amplifier (HEKA, Lambrecht, Germany) at 25°C. […]
as §4, with “concentration. […]” for “concentration.”

[3] = biological target: T3, hKv1.5 T480A mutant channel (Homo sapiens, UniProt P22460, T480A); assay: whole-cell patch-clamp of T480A mutant hKv1.5 current in CHO cells
T3 construct: Full-length cDNA encoding wild-type (WT) hKv1.5 (KCNA5) subcloned into the pcDNA3.1 expression vector; expressed in transfected cells; host or cells: CHO cells, transient transfection (pcDNA3.1), GFP cDNA co-transfected as a separate marker
T3 sequence (P22460 whole entry T480A): as the sequence (P22460 whole entry) above, with T480A counted along it
From the text: as §1, §5, §6
as §4, with “concentration. […]” for “concentration.”

[4] = biological target: T4, hKv1.5 V505A mutant channel (Homo sapiens, UniProt P22460, V505A); assay: whole-cell patch-clamp of V505A mutant hKv1.5 current in CHO cells
T4 construct: Full-length cDNA encoding wild-type (WT) hKv1.5 (KCNA5) subcloned into the pcDNA3.1 expression vector; expressed in transfected cells; host or cells: CHO cells, transient transfection (pcDNA3.1), GFP cDNA co-transfected as a separate marker
T4 sequence (P22460 whole entry V505A): as the sequence (P22460 whole entry) above, with V505A counted along it
From the text: as §1, §2, §3
as §4, with “concentration. […]” for “concentration.”

[5] = biological target: T5, hKv1.5 I508A mutant channel (Homo sapiens, UniProt P22460, I508A); assay: whole-cell patch-clamp of I508A mutant hKv1.5 current in CHO cells
T5 construct: Full-length cDNA encoding wild-type (WT) hKv1.5 (KCNA5) subcloned into the pcDNA3.1 expression vector; expressed in transfected cells; host or cells: CHO cells, transient transfection (pcDNA3.1), GFP cDNA co-transfected as a separate marker
T5 sequence (P22460 whole entry I508A): as the sequence (P22460 whole entry) above, with I508A counted along it
From the text: as §1, §2, §3
as §4, with “concentration. […]” for “concentration.”

[6] = biological target: T6, hKv1.5 L510A mutant channel (Homo sapiens, UniProt P22460, L510A); assay: whole-cell patch-clamp of L510A mutant hKv1.5 current in CHO cells; conditions: 5 μM HMQ1611, late current at +30 mV, n = 6, p < 0.01 vs. WT
T6 construct: Full-length cDNA encoding wild-type (WT) hKv1.5 (KCNA5) subcloned into the pcDNA3.1 expression vector; expressed in transfected cells; host or cells: CHO cells, transient transfection (pcDNA3.1), GFP cDNA co-transfected as a separate marker
T6 sequence (P22460 whole entry L510A): as the sequence (P22460 whole entry) above, with L510A counted along it
From the text: as §1, §5, §6
as §4, with “concentration. […]” for “concentration.”

[7] = biological target: T7, hKv1.5 V512A mutant channel (Homo sapiens, UniProt P22460, V512A); assay: whole-cell patch-clamp of V512A mutant hKv1.5 current in CHO cells; conditions: 5 μM HMQ1611, late current at +30 mV, n = 6, p < 0.01 vs. WT
T7 construct: Full-length cDNA encoding wild-type (WT) hKv1.5 (KCNA5) subcloned into the pcDNA3.1 expression vector; expressed in transfected cells; host or cells: CHO cells, transient transfection (pcDNA3.1), GFP cDNA co-transfected as a separate marker
T7 sequence (P22460 whole entry V512A): as the sequence (P22460 whole entry) above, with V512A counted along it
From the text: as §1, §5, §6
as §4, with “concentration. […]” for “concentration.”

[8] = biological target: T8, hKv1.5 V516A mutant channel (Homo sapiens, UniProt P22460, V516A); assay: whole-cell patch-clamp of V516A mutant hKv1.5 current in CHO cells
T8 construct: Full-length cDNA encoding wild-type (WT) hKv1.5 (KCNA5) subcloned into the pcDNA3.1 expression vector; expressed in transfected cells; host or cells: CHO cells, transient transfection (pcDNA3.1), GFP cDNA co-transfected as a separate marker
T8 sequence (P22460 whole entry V516A): as the sequence (P22460 whole entry) above, with V516A counted along it
From the text: as §1, §5, §6
as §4, with “concentration. […]” for “concentration.”

[9] = from τD of current decay at +30 mV vs drug concentration

Compound: CNC(=O)c1ccc(OC)c(OCC(=O)Nc2ccc(F)c(Cl)c2)c1-c1c(C(=O)NC)ccc(OC)c1OCC(=O)Nc1ccc(F)c(Cl)c1 [HMQ1611]
- time to start of inhibition on exposure ([1]; 5 μM HMQ1611): 5 to 10 s
- time to steady state inhibition ([1]; 5 μM HMQ1611): ≤ 3 min
- peak current amplitude at the first depolarizing step ([1]; 5 μM HMQ1611, 1 Hz train, control 6.11 ± 0.99 nA, n = 7, p > 0.05): 5.97 ± 0.98 nA
- decrease of peak amplitude of hKv1.5 current at the 20th pulse vs first pulse ([1]; 5 μM HMQ1611, 1 Hz, control 18.29 ± 2.20%, n = 7): 46.57 ± 4.19%
- peak current amplitude at the first depolarizing step ([1]; 5 μM HMQ1611, 2 Hz train, control 5.82 ± 1.14 nA, n = 6, p > 0.05): 5.67 ± 0.99 nA
- decrease of peak amplitude of hKv1.5 current at the 20th pulse vs first pulse ([1]; 5 μM HMQ1611, 2 Hz, control 32.73 ± 1.74%, n = 6): 66.47 ± 2.38%
- steady state level of inhibition of hKv1.5 current ([1]; 5 μM HMQ1611, representative time course, end of 300 ms step to +30 mV, within 3 min): approximately 86 % inhibition
- activation time constant ([1]; 5 μM HMQ1611, step to +30 mV, control 1.50 ± 0.25 ms, n = 7, p > 0.05): 1.47 ± 0.18 ms
- inhibition at 5 µM ([1]; CHO, WT, 5 μM HMQ1611, late current at end of 300 ms step to +30 mV, n = 7): 83.9 ± 4.06%
- IC50 ([1]; WT, late current at end of 300 ms depolarizing step to +30 mV, CHO cells, Hill fit, n = 7, read-out: IC50 for inhibition of hKv1.5 current): 2.07 ± 0.21 µM
- recovery of hKv1.5 current after washout ([1]; after 5 μM HMQ1611, within 10 min after washout with normal Tyrode solution): 94.64 % of the control value
- Kd ([1]; apparent dissociation constant, +30 mV, read-out: KD value derived by (k-1)/(k+1)): 4.48 µM
- slope factor k of Boltzmann activation fit ([1]; during exposure to 5 μM HMQ1611, control 14.09, 6 cells, p < 0.01 vs. control): 1.34
- V1/2 (voltage at half-maximal activation, tail currents) ([1]; during exposure to 5 μM HMQ1611, control -0.76 mV, 6 cells, p < 0.01 vs. control): -29.9 mV
- apparent binding rate constant (k+1) [1, 9]: 6.65e+06 M⁻¹ s⁻¹
- apparent unbinding rate constant (k-1) [1, 9]: 29.9 s⁻¹
- deactivation time constant ([1]; in presence of 5 μM HMQ1611, tail current at -40 mV after +30 mV, control 14.8 ± 1.4 ms, n = 10, p > 0.05): 13.1 ± 2.3 ms
- effect of intracellular dialysis on Kv1.5 currents ([1]; intracellular dialysis of cells with 5 μM HMQ1611 for 4 min after whole-cell configuration): did not change the Kv1.5 currents
- inhibition at 5 µM [2]: 51.1 ± 4.99%
- inhibition at 5 µM ([3]; CHO, T480A, 5 μM HMQ1611, late current at +30 mV, n = 7, p < 0.01 vs. WT): 15.3 ± 2.5%
- fold decrease in blocking potency compared with IC50 of WT channel ([3]; T480A vs WT): 7 fold
- inhibition at 5 µM ([4]; CHO, V505A, 5 μM HMQ1611, late current at +30 mV, n = 7, p < 0.01 vs. WT): 44 ± 4.4%
- fold decrease in blocking potency compared with IC50 of WT channel ([4]; V505A vs WT): 3 fold
- IC50 ([4]; V505A, Hill fit, n = 7): 6.44 ± 0.18 µM
- inhibition at 5 µM ([5]; CHO, I508A, 5 μM HMQ1611, late current at +30 mV, n = 7, p < 0.01 vs. WT): 16.2 ± 2.09%
- fold decrease in blocking potency compared with IC50 of WT channel ([5]; I508A vs WT): 5 fold
- IC50 ([5]; I508A, Hill fit, n = 7): 10.5 ± 0.41 µM
- inhibition at 5 µM [6]: 11.2 ± 2.24%
- inhibition at 5 µM [7]: 47.2 ± 3.86%
- inhibition at 5 µM ([8]; CHO, V516A, 5 μM HMQ1611, late current at +30 mV, n = 6, p < 0.01 vs. WT): 44.6 ± 5.48%
- fold decrease in blocking potency compared with IC50 of WT channel ([8]; V516A vs WT): 4 fold
